From patent US20130130903A1, “Suppression of Foliar and Soilborne Pathogens” (priority 2003, published 2013)
Like-named read-outs stand apart in the source and are kept apart here.

Legend:
non-inoculated wheat = test: Field yield of non-inoculated spring wheat after herbicide treatment; format: in vivo; settings: for Yield: 2002, non-inoculated, glyphosate on glyphosate res. wheat, Buctril/Harmony on sensitive wheat
Excerpt: (§1) This example describes the response of glyphosate resistant and glyphosate sensitive spring wheat to inoculation with soil pathogens as judged by wheat yield. Inoculation simulates the green-bridge effect of dying weeds and volunteer in a standing wheat crop. The soil pathogens assessed were: Rhizoctonia solani isolate AG-8 and Gaeumannomyces graminis var. tritici. These pathogenic strains are prevalent in the Pacific Northwest and were isolated from the region. They have been maintained by the Department of Plant Pathology and USDA researchers at Washington State University.
(§2) Near isogenic lines (glyphosate resistant and glyphosate sensitive) of Westbred 926 and Bobwhite were seeded using a no-till drill at three different sites (Lind, Davenport and Pullman, Wash.).
(§3) To introduce the root pathogens into the wheat seed for distribution into the field, oat seeds, autoclaved and sterilized, were inoculated for each soilborne pathogen using isolated pathogen cultures. Oat seeds that were non-inoculated, but sterilized and autoclaved, served as a control. Following two weeks of pathogen growth, the inoculated oat seeds were dried down for 2 days and screened for potential contamination. To establish a green-bridge, a mixture of 15% barley and 20% oat inoculum seeds (by weight) were planted using a small plot no-till drill. One week after planting the introduced green-bridge, the wheat isolines were planted in rows adjacent to the barley green-bridge rows in a randomized, split-plot design, replicated in five randomized blocks. Inoculum treatment served as the main plot, and response to herbicides as the subplot factor.
(§4) This example describes the effect of herbicide treatment on spring wheat, averaged over all disease treatments, planted as described in Example 1. The appropriate herbicide was applied to each trial once the plants reached the 4-5 leaf stage with a custom built hand-pulled sprayer outfitted with a boom with a length of 16 feet with spray shields on the side to minimize drift. In this manner, an entire plot was treated at once with the appropriate herbicide rate. Entries that were resistant to glyphosate were treated with ROUNDUP® brand herbicide (0.63 kg/ha), available from Monsanto, St. Louis, Mo. Herbicide sensitive and resistant entries were treated with a common broadleaf herbicide treatment (Buctril/Harmony) or a no-spray control. Introduced green-bridge barley and any other weeds were manually removed 7-10 days after spray treatment to simulate the time required for ROUNDUP to take effect and maintained weed-free conditions to provide an accurate comparison to commercial weed management strategies needed to assess potential herbicide/disease interactions. […]

[1] = test system: Gaeumannomyces graminis var. tritici (Ggt); test: Field yield of Ggt inoculated spring wheat after herbicide treatment; format: in vivo; settings: for Yield: Ggt inoculated, glyphosate on glyphosate res. wheat, Buctril/Harmony on sensitive wheat
Excerpt: as §1, §2, §3, §4

R. solani = settings: cited from earlier work
Ggt = settings: New Zealand studies; green-bridge effect on couch grass; cited from earlier work
[2] = test system: Rhizoctonia solani isolate AG-8 and Gaeumannomyces graminis var. tritici (averaged over all fungal inoculation treatments); test: Field yield of spring wheat after herbicide treatment, averaged over all fungal inoculation treatments; format: in vivo; settings: for Yield: glyphosate (ROUNDUP 0.63 kg/ha) on glyphosate res. wheat, Buctril/Harmony on sensitive wheat, 4-5 leaf stage
Excerpt: as §1, §2, §3
This example describes the effect of herbicide treatment on spring wheat, averaged over all disease treatments, planted as described in Example 1. The appropriate herbicide was applied to each trial once the plants reached the 4-5 leaf stage with a custom built hand-pulled sprayer outfitted with a boom with a length of 16 feet with spray shields on the side to minimize drift. In this manner, an entire plot was treated at once with the appropriate herbicide rate. Entries that were resistant to glyphosate were treated with ROUNDUP® brand herbicide (0.63 kg/ha), available from Monsanto, St. Louis, Mo. Herbicide sensitive and resistant entries were treated with a common broadleaf herbicide treatment (Buctril/Harmony) or a no-spray control. Introduced green-bridge barley and any other weeds were manually removed 7-10 days after spray treatment to simulate the time required for ROUNDUP to take effect and maintained weed-free conditions to provide an accurate comparison to commercial weed management strategies needed to assess potential herbicide/disease interactions.

O=C(O)CNCP(=O)(O)O [glyphosate, N-phosphonomethylglycine]
Yield (non-inoculated wheat; Davenport): 29.1 bu/acre | Yield (non-inoculated wheat; Lind): 14.2 bu/acre | Yield (non-inoculated wheat; Pullman): 55.6 bu/acre | yield of glyphosate-resistant wheat lines (non-inoculated wheat; in the absence of additional pathogen inoculum): increases yield | Yield ([1]; Davenport): 28.7 bu/acre | Yield ([1]; Lind): 14.4 bu/acre | Yield ([1]; Pullman): 57.0 bu/acre | yield versus untreated and Buctril/Harmony treated glyphosate sensitive wheat ([1]; glyphosate resistant, Ggt inoculated wheat, each location): significantly superior (P<0.05) | grain yields of glyphosate-sensitive barley under R. solani (R. solani; glyphosate applied in the fall or three weeks prior to planting): no significant yield depression | grain yields of glyphosate-sensitive barley under R. solani (R. solani; glyphosate applied three days before planting): significantly reduced grain yields | levels of infection of cereals with Ggt (Ggt): increases the levels of infection with Ggt | Yield ([2]; Davenport): 28.9 bu/acre | Yield ([2]; Lind): 14.2 bu/acre | Yield ([2]; Pullman): 56.5 bu/acre | grain produced versus glyphosate sensitive NILs treated with Buctril/Harmony Extra or the no spray control ([2]; RoundUp Ready spring wheat, regardless of disease treatment or location): significantly (P=0.001) more grain | yield of glyphosate resistant wheat versus other treatments ([2]; Table 2, each trial): higher yields in each trial
